Data on 48 molecules can be found in patent US20060100226A1, “2-Thiopyrimidinones as therapeutic agents” (priority 2004, published 2006).

As a reminder, the IC50 is the concentration at which inhibition is half-maximal. A higher IC50 goes with a need for much substance.

This assay deals with T1, murine MEKK2 (mMEKK2) (Mus musculus, UniProt Q61083).
T1 sequence (Q61083 1-619): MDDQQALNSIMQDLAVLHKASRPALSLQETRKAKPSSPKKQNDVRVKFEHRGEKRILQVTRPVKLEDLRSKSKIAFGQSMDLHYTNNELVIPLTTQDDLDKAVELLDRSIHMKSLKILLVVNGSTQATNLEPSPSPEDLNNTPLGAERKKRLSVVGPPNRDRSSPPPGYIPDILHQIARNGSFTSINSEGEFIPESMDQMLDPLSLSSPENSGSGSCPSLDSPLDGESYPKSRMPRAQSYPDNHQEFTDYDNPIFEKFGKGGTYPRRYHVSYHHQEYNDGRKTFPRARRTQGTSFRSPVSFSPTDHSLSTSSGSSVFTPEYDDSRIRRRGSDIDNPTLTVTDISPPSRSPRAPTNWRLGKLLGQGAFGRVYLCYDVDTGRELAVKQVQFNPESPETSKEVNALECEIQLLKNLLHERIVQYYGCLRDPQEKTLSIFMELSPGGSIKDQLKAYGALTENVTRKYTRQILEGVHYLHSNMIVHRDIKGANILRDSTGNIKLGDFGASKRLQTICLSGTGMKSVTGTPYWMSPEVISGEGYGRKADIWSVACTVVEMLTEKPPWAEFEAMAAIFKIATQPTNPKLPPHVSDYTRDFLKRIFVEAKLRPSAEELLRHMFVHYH
Put plainly: TR-FRET kinase assay (mMEKK2/MBP). It is filed as biochemical. The note with it: substrate biotin MBP, 60 minutes at room temperature. The procedure:
In one approach, MEKK2 inhibitory activity of compounds of the invention can be assessed using the time-resolved Fluorescence Resonance Energy Transfer (TR-FRET) assay detailed in Example 5. In this assay, the excitation energy of one fluorescent molecule (the donor) is transferred by a resonance mechanism to a nearby second fluorescent molecule (the acceptor), which then releases its fluorescent energy through fluorescent emission. This fluorescent energy is measured using a time-resolved fluorescence measurement protocol (LANCE high count 615/665); excitation occurred with 1,000 flashes at 325 nm, measurement was delayed by 100 μs, and data were acquired for 50 μs at 615 and 665 nm.
A TR-FRET kinase assay was used to screen potential inhibitors of MEKK2. The assay was performed as follows: Compounds to be tested were weighed and solubilized in DMSO (Sigma) to a stock concentration of 10 mM. Serial dilutions starting from 1 mM were prepared with additional DMSO. These dilutions were further diluted to 250 μM in kinase reaction buffer [20 mM Hepes pH 7.5, 5 mM MgCl2, 1 mM DTT (Dithiothreitol-Sigma), 1 mM NaVO4 (sodium vanadate-Sigma). A 25 μl aliquot of this solution was transferred to a black 96-well nonbinding surface microplate (Fisher). A stock aliquot containing […] of murine MEKK2 (mMEKK2) was diluted in the kinase reaction buffer and incubated with the compounds on the microplate for 10 minutes. A 25 μl aliquot of a 138 ng solution of biotin MBP (myelin basic protein—Upstate Biotechnology) was added to the reaction followed by 25 ul of a 25 ng solution of anti-phospho MBP antibody (Upstate Biotechnology) diluted in kinase reaction buffer. Finally an aliquot (50 μl) of a 5 uM solution of ATP (adenosine triphosphate) was added and the reaction was allowed to proceed for 60 minutes at room temperature. The reaction was stopped by the addition of 50 μL of a 12.5 ng solution of europium labeled anti-mouse IgG (Perkin Elmer) and 45 ng of Cy5 labeled streptavidin (Jackson Immunoresearch) in termination buffer (20 mM Hepes pH 7.5, 100 mM EDTA; Sigma). The assay was allowed to equilibrate for 45 minutes before placing the plate on the Victor™ plate reader. The plate was read using the 615/665 LANCE protocol.
Consider `COc1cccc(-c2nc(SCc3cccc(NC(=O)c4cc(Cl)cc(Cl)c4)c3)[nH]c(=O)c2C#N)c1` [Example 2p], for which the IC50 is less than 5 µM.

Consider `COc1cccc(-c2nc(SCc3ccc(NC(=O)c4ccccc4)cc3)[nH]c(=O)c2C#N)c1` [Example 2pp], for which the IC50 is less than 20 µM. `COc1cccc(-c2nc(SCc3cccc(NC(=O)c4cc(C(C)(C)C)nn4C)c3)[nH]c(=O)c2C#N)c1` [Example 2q] yielded an IC50 of less than 5 µM. `COc1cccc(-c2nc(SCc3ccc(NC(=O)c4ccc(OC(F)(F)F)cc4)cc3)[nH]c(=O)c2C#N)c1` [Example 2qq]: the concentration for half-maximal inhibition (IC50) is less than 5 µM. Molecule `COc1cccc(-c2nc(SCc3cccc(NC(=O)c4cc(C)on4)c3)[nH]c(=O)c2C#N)c1` [Example 2r] returned an IC50 of less than 20 µM. To `COc1cccc(-c2nc(SCc3ccc(NC(=O)c4ccc(F)c(C(F)(F)F)c4)cc3)[nH]c(=O)c2C#N)c1` [Example 2rr] belongs less than 5 µM.

With `COc1cccc(-c2nc(SCc3cccc(NC(=O)c4sccc4C)c3)[nH]c(=O)c2C#N)c1` [Example 2s], the IC50 is less than 10 µM.

Take `COc1cccc(-c2nc(SCc3ccc(NC(=O)c4cccc(C(F)(F)F)c4)cc3)[nH]c(=O)c2C#N)c1` [Example 2ss]: the IC50 is less than 5 µM. In the case of `COc1cccc(-c2nc(SCc3cccc(NC(=O)c4cnn(C)c4Cl)c3)[nH]c(=O)c2C#N)c1` [Example 2t], the half-inhibitory concentration (IC50) is less than 40 µM. Consider `COc1cccc(-c2nc(SCc3ccc(NC(=O)c4ccc(Cl)c(Cl)c4)cc3)[nH]c(=O)c2C#N)c1` [Example 2tt], for which the IC50 is less than 1 µM. To `COc1cccc(-c2nc(SCc3cccc(NC(=O)c4ccc(OC)cc4OC)c3)[nH]c(=O)c2C#N)c1` [Example 2u] belongs less than 20 µM; to `COc1cccc(-c2nc(SCc3ccc(NC(=O)c4cc(C)nn4C(C)(C)C)cc3)[nH]c(=O)c2C#N)c1` [Example 2uu], less than 20 µM. In turn, `COc1cccc(-c2nc(SCc3cccc(NC(=O)c4csc(Cl)c4OC)c3)[nH]c(=O)c2C#N)c1` [Example 2v] came in with an IC50 of less than 20 µM. The value for `COc1cccc(-c2nc(SCc3ccc(NC(=O)Cc4ccccc4)cc3)[nH]c(=O)c2C#N)c1` [Example 2vv] was less than 20 µM; that for `COc1cccc(-c2nc(SCc3cccc(NC(=O)c4cc(C)nn4C(C)(C)C)c3)[nH]c(=O)c2C#N)c1` [Example 2w] was less than 40 µM.

The molecule `COc1cccc(-c2nc(SCc3ccc(NC(=O)c4c(F)cc(F)cc4F)cc3)[nH]c(=O)c2C#N)c1` [Example 2ww] registered an IC50 of less than 20 µM. The value for `COc1cccc(-c2nc(SCc3cccc(NC(=O)c4cc(Cl)nc(OC)c4)c3)[nH]c(=O)c2C#N)c1` [Example 2x] was less than 10 µM. To `COc1cccc(-c2nc(SCc3ccc(NC(=O)C4CCN(c5nccc(C(F)(F)F)n5)CC4)cc3)[nH]c(=O)c2C#N)c1` [Example 2xx] belongs greater than 40 µM; to `COc1cccc(-c2nc(SCc3ccc(NC(=O)c4ccc(Cl)nc4)cc3)[nH]c(=O)c2C#N)c1` [Example 2yy], less than 20 µM. `COc1cccc(-c2nc(SCc3ccc(NC(=O)c4cccnc4Oc4ccc(Cl)cc4)cc3)[nH]c(=O)c2C#N)c1` [Example 2zz] returned a half-inhibitory concentration (IC50) greater than 40 µM. With `COc1cccc(-c2nc(SCc3ccc(NC(=O)Nc4cccc5nsnc45)cc3)[nH]c(=O)c2C#N)c1` [Example 3aa], the 50% inhibitory concentration (IC50) is less than 1 µM. The value for `COc1cccc(-c2nc(SCc3cccc(NC(=O)Nc4cc(F)cc(F)c4)c3)[nH]c(=O)c2C#N)c1` [Example 3b, 1-{3-[5-Cyano-4-(3-methoxy-phenyl)-6-oxo-1,6-dihydro-pyrimidin-2-ylsulfanylmethyl]-phenyl}-3-(3,5-difluoro-phenyl)-urea] was less than 5 µM; that for `COc1cccc(-c2nc(SCc3ccc(NC(=O)NC4CCNCC4)cc3)[nH]c(=O)c2C#N)c1` [Example 3bb] was greater than 40 µM.

In turn, `COc1cccc(-c2nc(SCc3cccc(NC(=O)NCc4ccccc4)c3)[nH]c(=O)c2C#N)c1` [Example 3c] had an IC50 of less than 5 µM. The value for `COc1cccc(-c2nc(SCc3cccc(NC(=O)Nc4ccccc4)c3)[nH]c(=O)c2C#N)c1` [Example 3d] was less than 5 µM. The value for `COc1cccc(-c2nc(SCc3cccc(NC(=O)NCCc4cccs4)c3)[nH]c(=O)c2C#N)c1` [Example 3e] was less than 5 µM; that for `COc1cccc(-c2nc(SCc3cccc(NC(=O)NC4CCCC4)c3)[nH]c(=O)c2C#N)c1` [Example 3f] was less than 5 µM; that for `COc1cccc(-c2nc(SCc3cccc(NC(=O)NCc4ccco4)c3)[nH]c(=O)c2C#N)c1` [Example 3g] was less than 10 µM. The value for `COc1cccc(-c2nc(SCc3cccc(NC(=O)NCc4cc(OC)c(OC)c(OC)c4)c3)[nH]c(=O)c2C#N)c1` [Example 3i] was less than 40 µM; that for `COc1cccc(-c2nc(SCc3cccc(NC(=O)Nc4ccc5c(c4)OCCO5)c3)[nH]c(=O)c2C#N)c1` [Example 3j] was less than 10 µM; that for `COc1cccc(-c2nc(SCc3cccc(NC(=O)NCCc4ccc5c(c4)OCO5)c3)[nH]c(=O)c2C#N)c1` [Example 3k] was less than 10 µM.

As to `COc1cccc(-c2nc(SCc3ccc(NC(=O)NCc4ccccc4)cc3)[nH]c(=O)c2C#N)c1` [Example 3l], the IC50 was less than 10 µM. To `COc1cccc(-c2nc(SCc3ccc(NC(=O)Nc4ccccc4)cc3)[nH]c(=O)c2C#N)c1` [Example 3m] belongs less than 5 µM; to `COc1cccc(-c2nc(SCc3ccc(NC(=O)Nc4cccc(C#N)c4)cc3)[nH]c(=O)c2C#N)c1` [Example 3o], less than 20 µM.

Molecule `COc1cccc(-c2nc(SCc3ccc(NC(=O)Nc4ccc5c(c4)OCO5)cc3)[nH]c(=O)c2C#N)c1` [Example 3p] had an IC50 of less than 20 µM. To `COc1cccc(-c2nc(SCc3ccc(NC(=O)Nc4c(Cl)cccc4Cl)cc3)[nH]c(=O)c2C#N)c1` [Example 3q] belongs greater than 40 µM. To `COc1cccc(-c2nc(SCc3ccc(NC(=O)Nc4cc(F)cc5c4OCOC5)cc3)[nH]c(=O)c2C#N)c1` [Example 3r] belongs less than 5 µM; to `COc1cccc(-c2nc(SCc3ccc(NC(=O)Nc4ccc(Cl)c(C(F)(F)F)c4)cc3)[nH]c(=O)c2C#N)c1` [Example 3s], less than 5 µM. Consider `COc1cccc(-c2nc(SCc3ccc(NC(=O)Nc4cc(C(F)(F)F)ccc4Cl)cc3)[nH]c(=O)c2C#N)c1` [Example 3t], for which the concentration for half-maximal inhibition (IC50) was less than 5 µM.

As for `COc1cccc(-c2nc(SCc3ccc(NC(=O)Nc4cc([N+](=O)[O-])ccc4F)cc3)[nH]c(=O)c2C#N)c1` [Example 3u], the concentration for half-maximal inhibition (IC50) was less than 10 µM. The value for `COc1cccc(-c2nc(SCc3ccc(NC(=O)Nc4cccc(Oc5ccccc5)c4)cc3)[nH]c(=O)c2C#N)c1` [Example 3v] was less than 1 µM. To `COc1cccc(-c2nc(SCc3ccc(NC(=O)NCCc4cccs4)cc3)[nH]c(=O)c2C#N)c1` [Example 3w] belongs less than 5 µM. The value for `COc1cccc(-c2nc(SCc3ccc(NC(=O)Nc4cc(C(F)(F)F)cc(C(F)(F)F)c4)cc3)[nH]c(=O)c2C#N)c1` [Example 3x] was less than 1 µM; that for `COc1cccc(-c2nc(SCc3ccc(NC(=O)NC4CCCCC4)cc3)[nH]c(=O)c2C#N)c1` [Example 3y] was less than 1 µM. For the molecule `COc1cccc(-c2nc(SCc3ccc(NC(=O)NC(c4ccccc4)c4ccccc4)cc3)[nH]c(=O)c2C#N)c1` [Example 3z], the IC50 is less than 1 µM. The value for `COc1cccc(-c2nc(SCc3cccc(NCc4ccc(OCCN(C)c5ccncc5)cc4)c3)[nH]c(=O)c2C#N)c1` [Example 4b] was greater than 40 µM; that for `N#Cc1c(-c2cccc(Cn3cncn3)c2)nc(SCc2cccc(NC(=O)c3ccc(Cl)c(Cl)c3)c2)[nH]c1=O` [Example 4bb] was greater than 40 µM.

For `COc1cccc(-c2nc(SCc3cccc(NCC4CCN(c5ccncc5)CC4)c3)[nH]c(=O)c2C#N)c1` [Example 4c], the IC50 is greater than 40 µM.
